Experimental data reported in patent publication US7989599B2, “Activator including biosurfactant as active ingredient, mannosyl erythritol lipid, and production method thereof” (Toyo Boseki Kabushiki Kaisha, priority 2009, dated 2011).

Assay: Ability to form liquid crystal, water-invading method
Type: physicochemical
Settings: polarization microscope, compared with conventional MEL, FIGS. 10 and 11
Source text: Evaluation of the ability to form liquid crystals can be made by a conventional and publicly known method. An example of the method for easily comparing the ability to form liquid crystals is a water invading method. In this method, MEL is applied on a slide glass and distilled water is dropped beside the applied area, and a liquid crystal phase formed at an interface by dropping of the distilled water is observed by a microscope. Thus, behavior of liquid crystal formation can be searched. With the method, it is possible to easily compare the conventional MEL with the MEL optical isomer of the present invention in terms of their abilities to form liquid crystals.
MEL produced by Pseudozyma tsukubaensis JCM 10324 strain obtained in Example 8 and conventional MEL produced by Pseudozyma antarctica KM-34 (FERMP-20730) strain were compared with each other by a water-invading method in terms of their abilities to form liquid crystal.

Substance: 1-(6′-acetyl-2′,3′-di-O-alka(ke)noyl-β-D-mannnopyranosyl-)meso-erythritol
- ability to form liquid crystal (lamella phase): has an ability to form lamella phase in a very wider concentration range than conventional MEL
